Source: patent US20040072737A1, “Echinocandin derivatives, their method of preparation and their application as anti-fungal agents” (Aventis Pharma S.A., priority 1997, published 2004)

Tested on: Glucane Synthesis of Candida Albicans (membranes of Candida albicans)
Test: Inhibition of the glucane synthesis of Candida albicans (14C-UDP glucose incorporation by purified membranes)
Assay type: biochemical
Settings: Candida albicans membrane proteins, 25° C., 1 hour, result in words
Protocol: A—Inhibition of the Glucane Synthesis of Candida Albicans.
The membranes of Candida albicans are purified according to the process described by Tang and al Antimicrob. Agents Chemother 35, 99-103, 1991. 22.5 μg of membrane proteins are incubated in a mixture of 2 Mm of 14C-UDP glucose (specific activity=0.34 mCi./mmol, 50 μg of α-amylase, 1 Mm of dithiotreitol (DTT), 1 Mm EDTA, 100 Mm NaF, 7 μM of GTP-γ-S, 1M of sucrose and 5 oMm OF Ttris-HCL (pH 7.8) in a volume of 100 μl. The medium is incubated at 25° C. for 1 hour and the reaction terminated by addition of TCA to a final concentration of 5%. The reaction medium is transferred onto a pre-humidified glass fibre filter. The filter is washed, dried and its radioactivity is counted.
Mulundocandin is used as positive control.
The control of the medium is carried out with the same quantity of DMSO 1%.

Substance	Inhibition of the glucane synthesis of Candida albicans
(±) Trifluoroacetate of 1-[4-[(aminoiminomethyl) hydrazono]-N2-(12-methyl-1-oxotetradecyl)-L-ornithine]4-[4-(4-hydroxyphenyl)-L-threonine]-5-L serine echinocandin B [Example 11]	good activity
Trifluoroacetate of 1-[4-[(2-aminoethyl) amino]-N2-(12-methyl-1-oxotetradecyl)-L-ornithine]4-[4-(4-hydroxyphenyl)-L-threonine]-5-L serine echinocandin B (isomer A and isomer B) [Example 9]	good activity
Trifluoroacetate of 1-[4-[(2-aminoethyl) amino]N2-[[4′-(octyloxy)[1.1′-biphenyl]-4-[carbonyl]-L-ornithine]4-[4-(4-(4-hydroxyphenyl)-L-threonine]-5-L serine echinocandin B (isomer A) [Example 14]	good activity
